melting point [°C]	SMILES
141 to 143	CCNC(=O)c1nc(-c2ccc(C)c(C)c2)n(-c2cc(Cl)ccc2C)c1-c1cccc(Cl)c1 [Example 1, 1-(5-Chloro-2-methyl-phenyl)-5-(3-chloro-phenyl)-2-(3,4-dimethyl-phenyl)-1H-imidazole-4-carboxylic acid ethylamide]
218	Cc1ccc(-c2nc(C#N)c(-c3cccc(Cl)c3)n2-c2cc(Cl)ccc2C)cc1C [Example 3, 1-(5-chloro-2-methyl-phenyl)-5-(3-chloro-phenyl)-2-(3,4-dimethyl-phenyl)-1H-imidazole-4-nitrile]
157 to 160	O=Cc1cc(-c2nc(C(=O)O)c(-c3ccc(F)c(Cl)c3)n2-c2cccc(Cl)c2F)cs1 [Example 293, 5-(3-Chloro-4-fluoro-phenyl)-1-(3-chloro-2-fluoro-phenyl)-2-(5-formyl-thiophen-3-yl)-1H-imidazole-4-carboxylic acid]
